In patent US20100113584A1, “NOVEL USE OF (-)-EPIGALLOCATECHIN GALLATE” (priority 2007, published 2010):

Columns and labels:
[1] = test system: skeletal muscle fibers of medial gastrocnemius muscle; assay: Fiber type quantification in medial gastrocnemius muscle (immune-histochemistry, cytochrome oxidase staining); format: in vivo, mice; conditions: 2 months
Text: (§1) Male C57BL/6J mice (5 weeks old) were purchased from Charles River (Sulzfeld, Germany). All mice initially received a high-fat diet (Kliba#2154, Provimi Kliba AG, Kaiseraugst, Switzerland) for 3 months. Thereafter, mice were randomly assigned to 5 groups. • Group 1: Low-fat diet, restricted to cage normal activity (Low fat sedentary, n=11) • Group 2: High-fat diet, restricted to cage normal activity (High fat sedentary, n=11) • Group 3: High-fat diet containing 0.5% w/w EGCG, restricted to cage normal activity (High fat+EGCG sedentary, n=10) • Group 4: High-fat diet, free access to running wheel (High fat exercise, n=10) • Group 5: High-fat diet containing 0.5% w/w EGCG, free access to running wheel (High fat+EGCG exercise, n=10) The duration of the treatment was 2 months. During this period all mice received food and water ad libitum. Mice in groups 4 and 5 had unlimited access to running wheels (Technical & Scientific Equipment GmbH, Bad Homburg, Germany). Daily voluntary running wheel activity was monitored. At the end of the treatment period, maximal running performance on a rodent treadmill (Technical & Scientific Equipment GmbH, Bad Homburg, Germany) was determined. The Gastrocnemius muscles were excised, frozen in liquid nitrogen and stored at −80° C. for later quantification of the fiber type. In the medial gastrocnemius, skeletal muscle fibers were quantified as Type I, Type IIA, Type D/X, Type IIB by immune-histochemistry utilizing fiber specific antibodies and by histochemistry using a cytochrome oxidase staining.

C57BL/6J mice = assay: Daily voluntary running wheel activity of mice on high-fat diet; format: in vivo; conditions: male C57BL/6J mice, high-fat diet containing 0.5% w/w EGCG, free access to running wheel, 2 months; P<0.004 vs high-fat diet alone
Text: as §1, with “During this period all mice received food and water ad libitum. Mice in groups 4 and 5 had unlimited access to running wheels (Technical & Scientific Equipment GmbH, Bad Homburg, Germany).” left out

[2] = High fat + EGCG (0.5% w/w) exercise (running wheel)
[3] = High fat + EGCG (0.5% w/w) sedentary

## (−)-epigallocatechin gallate [EGCG]
[1]; [2]
  Percentage of Type I fibers in medial gastrocnemius muscle: 12.8%
  Percentage of Type IIa fibers in medial gastrocnemius muscle: 54.2%
  Percentage of Type IIb fibers in medial gastrocnemius muscle: 27.8%
  Percentage of Type IId/x fibers in medial gastrocnemius muscle: 5.1%
[1]; [3]
  Percentage of Type I fibers in medial gastrocnemius muscle: 12.5%
  Percentage of Type IIa fibers in medial gastrocnemius muscle: 53.5%
  Percentage of Type IIb fibers in medial gastrocnemius muscle: 28.8%
  Percentage of Type IId/x fibers in medial gastrocnemius muscle: 5.2%
C57BL/6J mice
  voluntary running wheel activity, average distance run per day: 3140.3±43.3 m per day
